{"source": "the CheMixHub ionic liquid set", "assay": "xn = mol fraction of the nth substance listed", "note": "± gives the uncertainty stated by the source.", "data": [{"smiles": "CC(=O)C(=O)O", "note": "+ CC[N+](CC)(CC)CC.[Cl-]", "values": [{"measurement": "viscosity", "setting": "298.15 K, 101.3 kPa, x2 = 0.3333", "value": "89.1 ± 6.8", "unit": "mPa·s"}, {"measurement": "viscosity", "setting": "308.15 K, 101.3 kPa, x2 = 0.3333", "value": "57.5 ± 1.3", "unit": "mPa·s"}, {"measurement": "viscosity", "setting": "318.15 K, 101.3 kPa, x2 = 0.3333", "value": "37.5 ± 1.2", "unit": "mPa·s"}, {"measurement": "viscosity", "setting": "328.15 K, 101.3 kPa, x2 = 0.3333", "value": "24.05 ± 0.8", "unit": "mPa·s"}, {"measurement": "viscosity", "setting": "338.15 K, 101.3 kPa, x2 = 0.3333", "value": "16.05 ± 0.54", "unit": "mPa·s"}]}, {"smiles": "O=C(O)CO", "note": "+ CC[N+](CC)(CC)CC.[Cl-]", "values": [{"measurement": "viscosity", "setting": "303.15 K, 101 kPa, x1 = 0.6667", "value": "268 ± 12", "unit": "mPa·s"}, {"measurement": "viscosity", "setting": "323.15 K, 101 kPa, x1 = 0.6667", "value": "87 ± 10", "unit": "mPa·s"}, {"measurement": "viscosity", "setting": "353.15 K, 101 kPa, x1 = 0.6667", "value": "27 ± 10", "unit": "mPa·s"}]}, {"smiles": "CC[N+](CC)(CC)CC.O=[N+]([O-])[O-]", "note": "+ CC[NH3+].O=[N+]([O-])[O-]", "values": [{"measurement": "electrical conductivity", "setting": "293.15 K, 101 kPa, frequency 0.00293 MHz, x1 = 0.15", "value": 1.01, "unit": "S/m"}, {"measurement": "viscosity", "setting": "293.15 K, 101 kPa, x1 = 0.15", "value": 74.1, "unit": "mPa·s"}, {"measurement": "electrical conductivity", "setting": "303.15 K, 101 kPa, frequency 0.00293 MHz, x1 = 0.0501", "value": 2.13, "unit": "S/m"}, {"measurement": "electrical conductivity", "setting": "303.15 K, 101 kPa, frequency 0.00293 MHz, x1 = 0.15", "value": 1.42, "unit": "S/m"}, {"measurement": "electrical conductivity", "setting": "303.15 K, 101 kPa, frequency 0.00293 MHz, x1 = 0.35", "value": 0.565, "unit": "S/m"}, {"measurement": "viscosity", "setting": "303.15 K, 101 kPa, x1 = 0.0501", "value": 35.5, "unit": "mPa·s"}, {"measurement": "viscosity", "setting": "303.15 K, 101 kPa, x1 = 0.15", "value": 50, "unit": "mPa·s"}, {"measurement": "viscosity", "setting": "303.15 K, 101 kPa, x1 = 0.35", "value": 131, "unit": "mPa·s"}, {"measurement": "electrical conductivity", "setting": "308.15 K, 101 kPa, frequency 0.00293 MHz, x1 = 0.2001", "value": 1.34, "unit": "S/m"}, {"measurement": "viscosity", "setting": "308.15 K, 101 kPa, x1 = 0.2001", "value": 50.4, "unit": "mPa·s"}, {"measurement": "electrical conductivity", "setting": "313.15 K, 101 kPa, frequency 0.00293 MHz, x1 = 0.1", "value": 2.33, "unit": "S/m"}, {"measurement": "viscosity", "setting": "313.15 K, 101 kPa, x1 = 0.1", "value": 30.3, "unit": "mPa·s"}, {"measurement": "electrical conductivity", "setting": "318.15 K, 101 kPa, frequency 0.00293 MHz, x1 = 0.2995", "value": 1.04, "unit": "S/m"}, {"measurement": "viscosity", "setting": "318.15 K, 101 kPa, x1 = 0.2995", "value": 50.9, "unit": "mPa·s"}, {"measurement": "electrical conductivity", "setting": "323.15 K, 101 kPa, frequency 0.00293 MHz, x1 = 0.15", "value": 2.46, "unit": "S/m"}, {"measurement": "viscosity", "setting": "323.15 K, 101 kPa, x1 = 0.15", "value": 26.2, "unit": "mPa·s"}, {"measurement": "viscosity", "setting": "328.15 K, 101 kPa, x1 = 0.2001", "value": 26.6, "unit": "mPa·s"}, {"measurement": "viscosity", "setting": "328.15 K, 101 kPa, x1 = 0.2567", "value": 32.4, "unit": "mPa·s"}, {"measurement": "viscosity", "setting": "328.15 K, 101 kPa, x1 = 0.35", "value": 48.3, "unit": "mPa·s"}, {"measurement": "viscosity", "setting": "333.15 K, 101 kPa, x1 = 0.15", "value": 20.1, "unit": "mPa·s"}, {"measurement": "viscosity", "setting": "343.15 K, 101 kPa, x1 = 0.15", "value": 15.7, "unit": "mPa·s"}, {"measurement": "viscosity", "setting": "348.15 K, 101 kPa, x1 = 0.2001", "value": 16, "unit": "mPa·s"}, {"measurement": "viscosity", "setting": "348.15 K, 101 kPa, x1 = 0.35", "value": 26.3, "unit": "mPa·s"}, {"measurement": "viscosity", "setting": "353.15 K, 101 kPa, x1 = 0.1", "value": 11, "unit": "mPa·s"}, {"measurement": "viscosity", "setting": "353.15 K, 101 kPa, x1 = 0.35", "value": 23.4, "unit": "mPa·s"}]}, {"smiles": "C[N+]1(CCOCCOCCOCC[N+]2(C)CCCC2)CCCC1.O=S(=O)([N-]S(=O)(=O)C(F)(F)F)C(F)(F)F.O=S(=O)([N-]S(=O)(=O)C(F)(F)F)C(F)(F)F", "note": "+ CC[n+]1ccn(C)c1.N#C[N-]C#N + O=S(=O)([N-]S(=O)(=O)C(F)(F)F)C(F)(F)F.[Li+]", "values": [{"measurement": "electrical conductivity", "setting": "298 K, 100 kPa, x1 = 0.1489, x2 = 0.7484", "value": "0.698 ± 0.028", "unit": "S/m"}, {"measurement": "electrical conductivity", "setting": "303 K, 100 kPa, x1 = 0.1489, x2 = 0.7484", "value": "0.827 ± 0.033", "unit": "S/m"}, {"measurement": "electrical conductivity", "setting": "313 K, 100 kPa, x1 = 0.1489, x2 = 0.7484", "value": "1.1 ± 0.044", "unit": "S/m"}, {"measurement": "electrical conductivity", "setting": "323 K, 100 kPa, x1 = 0.1489, x2 = 0.7484", "value": "1.43 ± 0.057", "unit": "S/m"}, {"measurement": "electrical conductivity", "setting": "333 K, 100 kPa, x1 = 0.1489, x2 = 0.7484", "value": "1.81 ± 0.072", "unit": "S/m"}, {"measurement": "electrical conductivity", "setting": "343 K, 100 kPa, x1 = 0.1489, x2 = 0.7484", "value": "2.21 ± 0.089", "unit": "S/m"}]}]}
